One data set has as its system mice of ICR strain. Nature of the data set: Assay on MTD (maximum tolerated dose) in vivo of mice. The conditions noted are these: for Number of Dead Animals ♂/♀ / Number of animals that died immediately after the injection (a) ♂/♀: male/female; for Number of animals that died immediately after the injection (a) ♂/♀: not counted in mortality rate. The procedure:
Assay on MTD (Maximum Tolerated Dose) In Vivo of Mice
Assay on Maximum Tolerated Dose of Compound
Assay animals: mice of ICR strain with a weight of 18-22 g, purchased from Beijing Vital River Laboratories Limited, License SCXK (jing) 2007-0001.
Administration Regimen: each experimental animal was administered with corresponding dosage of tested substance once by injection of caudal vain every three days. Each dosage was initially designed as 5 times of administration. The specific time of administration depended on the conditions of the animals. It should be carefully observed the behavior conditions of the animals within 2 hours after administration. The animal's behavior was observed every 4 hours in the day of administration. The survival conditions and weight of animals were recorded every day and observed for whether abnormality occurred on the body surface thereof. The experimental animals were sacrificed on 14 day after administration and dissected for observation.
I group: (20 mg/kg) group;
II group: (25 mg/kg) group;
III group: (30 mg/kg) group;
IV group: solvent control group;
There were four groups in total. Each group consisted of five male mice and five female mice.
I group: (40 mg/kg) group;
II group: (45 mg/kg) group;
III group: (50 mg/kg) group;
V group: (60 mg/kg) group;
There were five groups in total. Each group consisted of six male mice and six female mice.

Data set [1] can be described thus: Storage stability detected by HPLC. Conditions: sealed and stored for 9 months under refrigeration conditions. Format: physicochemical.

Take `COc1cccc2c1C(=O)c1c(O)c3c(c(O)c1C2=O)C[C@@](O)(C(=O)CO)C[C@@H]3O[C@H]1C[C@H](n2cccc2)[C@H](O)[C@H](C)O1` [3′-Pyrrolyldoxorubicin]: the “Number of Dead Animals ♂/♀” value in the data set with mice of ICR strain (20 mg/kg, 4 administrations) is given as 5/5; in the data set on mice of ICR strain (25 mg/kg, 4 administrations) it was 5/5; in the data set on mice of ICR strain (30 mg/kg, 3 administrations) it was 5/5. Besides, the “Mortality Rate (%)” value in the data set on mice of ICR strain (20 mg/kg, 4 administrations, total dosage 80 mg/kg) is reported as 100%; in the data set with mice of ICR strain (25 mg/kg, 4 administrations, total dosage 100 mg/kg), 100%; in the data set on mice of ICR strain (30 mg/kg, 3 administrations, total dosage 90 mg/kg), 100%.

As for `COc1cccc2c1C(=O)c1c(O)c3c(c(O)c1C2=O)CC(O)(C(=O)COC(=O)CCC(=O)O)CC3OC1CC(n2cccc2)C(O)C(C)O1` (centres unmarked) [Compound A, 3′-pyrrolyldoxorubicin-14-oxo-succinic acid monoester], the “Number of Dead Animals ♂/♀” value in the data set with mice of ICR strain (30 mg/kg, 5 administrations) is given as 0/1; in the data set on mice of ICR strain (40 mg/kg, 5 administrations), 3/2; in the data set on mice of ICR strain (50 mg/kg, 5 administrations) it was 5/5; with mice of ICR strain (60 mg/kg, 5 administrations), 5/5. Also, the “Mortality Rate (%)” value worked out at 10% with mice of ICR strain (30 mg/kg, 5 administrations, total dosage 150 mg/kg); 50% in the data set on mice of ICR strain (40 mg/kg, 5 administrations, total dosage 200 mg/kg); 100% in the data set with mice of ICR strain (50 mg/kg, 5 administrations, total dosage 250 mg/kg); 100% in the data set with mice of ICR strain (60 mg/kg, 5 administrations, total dosage 300 mg/kg).

For the compound `COc1cccc2c1C(=O)c1c(O)c3c(c(O)c1C2=O)CC(O)(C(=O)COC(=O)CCC(=O)NCCN1CCOCC1)CC3O[C@H]1C[C@H](n2cccc2)[C@H](O)[C@H](C)O1.O=P(O)(O)O` (stereo partly drawn) [Example 96, 10-((3′-(Pyrrol-1-yl)-2′,3′,6′-Trideoxy-Alpha-L-Lyxo-Hexylpyranyl)Oxy)-7,8,9,10-Tetrahydro-6,8,11-Trihydroxy-13-Oxo-14-(4-((2-(Morpholin-1-yl)Ethyl)Amino)-4-Oxo-Butyrato)-1-Methoxy-5,12-Naphthalenedione Phosphate], in data set [1], the “stability (degraded product by HPLC)” value is recorded as “No obvious degraded product was observed”. The “Number of Dead Animals ♂/♀” value is 0/1 with mice of ICR strain (40 mg/kg, 5 administrations); 0/0 in the data set on mice of ICR strain (45 mg/kg, 5 administrations); 0/0 in the data set with mice of ICR strain (50 mg/kg, 5 administrations); 5/4 in the data set with mice of ICR strain (55 mg/kg, 5 administrations); 3/4 with mice of ICR strain (60 mg/kg, 5 administrations). For the same compound, the “Number of animals that died immediately after the injection (a) ♂/♀” value with mice of ICR strain (45 mg/kg, 5 administrations) was 1/2; in the data set on mice of ICR strain (50 mg/kg, 5 administrations) it was 1/1; in the data set with mice of ICR strain (55 mg/kg, 5 administrations), 5/3.

The values above are taken from patent US10294260B2, “Tetracyclic anthraquinone derivatives” (TIANJIN HEMAY ONCOLOGY PHARMACEUTICAL CO., LTD., priority 2012, dated 2019).
